Patent publication US20110191867A1

How the values were obtained:
[1] = tested on: serum antibodies of test subjects
[2] = tested on: serum antibodies of test subjects; details: serum of 8 persons

Row | Substance | comparison of the cyclic and linear peptide, reactivity with sera [1] | reaction with serum of test subject [1] | reactivity with sera of test subjects [1] | immune responses of serum antibodies against the peptides [2]
1 | Biotin-aminocaproyl-RPKVRDQ [Peptide 3C] | more reactive with low signals with other subjects | higher reaction | Strong responses were observed from the serum of test subjects S5B | –
2 | Biotin-aminocaproyl-SRPRVRNIP [Peptide 2B] | – | high reaction | much weaker reactions | especially effective in binding with certain antibodies
